Results from patent publication US11555055B2, “Peptide inhibitors of insulin-degrading enzyme” (The Regents of the University of California, priority 2017, dated 2023).
Where a SMILES comes first, the peptide text is derived from it. Bridges are numbered along the chain shown (N, C = ends). Where no end group is shown, it is not given here.

T1: IDE (Homo sapiens, UniProt P14735)
T1 construct: made in house; host or cells: bacteria
T1 sequence (P14735 1-1019): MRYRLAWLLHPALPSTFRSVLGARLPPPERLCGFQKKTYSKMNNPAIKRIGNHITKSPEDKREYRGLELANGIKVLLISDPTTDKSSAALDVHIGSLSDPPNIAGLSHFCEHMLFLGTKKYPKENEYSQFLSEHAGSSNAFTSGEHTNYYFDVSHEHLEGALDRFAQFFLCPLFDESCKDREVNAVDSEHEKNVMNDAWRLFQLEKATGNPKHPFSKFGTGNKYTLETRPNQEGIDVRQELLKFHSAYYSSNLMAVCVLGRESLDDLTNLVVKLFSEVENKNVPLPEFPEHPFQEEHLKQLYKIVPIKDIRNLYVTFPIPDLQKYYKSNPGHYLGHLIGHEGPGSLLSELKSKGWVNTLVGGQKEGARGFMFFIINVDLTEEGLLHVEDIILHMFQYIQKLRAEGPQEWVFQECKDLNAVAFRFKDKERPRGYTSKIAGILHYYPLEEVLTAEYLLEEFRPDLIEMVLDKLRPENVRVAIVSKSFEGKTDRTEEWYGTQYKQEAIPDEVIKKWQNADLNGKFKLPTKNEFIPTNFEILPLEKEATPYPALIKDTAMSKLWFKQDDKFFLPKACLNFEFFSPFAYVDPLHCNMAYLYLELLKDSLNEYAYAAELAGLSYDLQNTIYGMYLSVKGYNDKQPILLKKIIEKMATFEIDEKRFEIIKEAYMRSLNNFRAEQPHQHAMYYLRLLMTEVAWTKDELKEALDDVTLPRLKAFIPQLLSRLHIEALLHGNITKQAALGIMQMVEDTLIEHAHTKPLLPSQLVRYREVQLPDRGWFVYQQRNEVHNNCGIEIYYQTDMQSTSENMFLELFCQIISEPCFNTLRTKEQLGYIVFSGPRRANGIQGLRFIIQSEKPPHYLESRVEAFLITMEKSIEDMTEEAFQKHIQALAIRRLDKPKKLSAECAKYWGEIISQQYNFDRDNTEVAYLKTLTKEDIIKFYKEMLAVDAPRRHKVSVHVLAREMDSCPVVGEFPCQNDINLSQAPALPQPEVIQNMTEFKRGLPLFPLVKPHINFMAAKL

T2: recombinant human insulin-degrading enzyme (IDE) (human, UniProt P14735 42-1019, limits assumed)
T2 construct: Used at 1 nM in the in vitro activity assays; immobilised on plates for phage panning
T2 sequence (looked up): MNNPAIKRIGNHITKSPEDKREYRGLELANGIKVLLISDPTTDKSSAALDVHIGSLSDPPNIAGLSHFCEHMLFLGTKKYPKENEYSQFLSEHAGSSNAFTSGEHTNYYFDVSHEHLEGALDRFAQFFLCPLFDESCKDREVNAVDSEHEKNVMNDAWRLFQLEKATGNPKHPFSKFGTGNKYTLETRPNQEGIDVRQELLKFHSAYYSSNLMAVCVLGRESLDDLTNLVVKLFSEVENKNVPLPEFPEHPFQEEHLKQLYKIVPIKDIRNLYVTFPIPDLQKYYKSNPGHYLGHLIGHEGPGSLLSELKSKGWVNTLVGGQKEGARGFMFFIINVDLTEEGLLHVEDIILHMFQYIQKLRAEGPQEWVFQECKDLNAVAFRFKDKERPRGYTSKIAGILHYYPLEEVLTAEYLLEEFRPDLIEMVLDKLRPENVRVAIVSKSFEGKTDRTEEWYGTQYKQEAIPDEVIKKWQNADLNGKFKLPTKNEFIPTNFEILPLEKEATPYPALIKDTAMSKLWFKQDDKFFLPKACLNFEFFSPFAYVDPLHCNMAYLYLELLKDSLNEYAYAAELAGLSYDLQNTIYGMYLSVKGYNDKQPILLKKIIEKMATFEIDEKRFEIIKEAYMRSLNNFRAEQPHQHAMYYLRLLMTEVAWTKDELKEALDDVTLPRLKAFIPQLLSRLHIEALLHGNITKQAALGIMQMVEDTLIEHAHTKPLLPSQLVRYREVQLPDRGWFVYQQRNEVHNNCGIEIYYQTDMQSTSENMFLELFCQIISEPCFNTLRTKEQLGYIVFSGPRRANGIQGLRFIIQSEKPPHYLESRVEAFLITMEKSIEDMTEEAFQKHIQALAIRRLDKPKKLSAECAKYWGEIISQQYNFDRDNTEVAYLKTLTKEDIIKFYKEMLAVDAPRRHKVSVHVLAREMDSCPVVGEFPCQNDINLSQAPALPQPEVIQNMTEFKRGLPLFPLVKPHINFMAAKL

B1: P12-3 (peptide)
peptide: H-QSLPWCYPHCVT-OH
modifications: not fully specified; cysteine pairing not given here
notes: Two cysteines predicted to form a disulfide bond; not deliberately cyclized before testing
B2: P12-1C (peptide)
peptide: Ac-FRQWWQPS
notes: also called N-terminally truncated variant of P12-1
B3: P12-3A, deliberately cyclized, highly pure cosmetic-grade version (peptide)
peptide: QSLPWCYPHCVT-NH2
modifications: disulfide 6-10 (inferred)
notes: also called cyclized P12-3A
B4: P12-3A (QSLPWCYPHCVT-amide), as first synthesized, not deliberately cyclized (peptide)
peptide: H-QSLPWCYPHCVT-NH2
modifications: not fully specified; printed as QSLPWCYPHCVT-amide; cysteine pairing not given here
notes: also called C-terminally amidated variant of P12-3

Legend:
[1] = system: multiple matrix-metalloproteases (MMPs); experiment: Matrix Metalloproteinase (MMP) Inhibitor Profiling Kit, positive control; type: biochemical; details: P<0.01
Description: FIG. 8A-B. Selectivity of P12-3A for IDE vis-à-vis other proteases. Activity of P12-3A (100 μM) against (A) multiple matrix-metalloproteases (MMPs) and (B) multiple peptidases of different protease classes. […] Data are mean±SEM, n=8-16 per group. P<0.05 by 2-tailed Student's t-test. […] See Experimental Procedures for details. NEP, neprilysin; mCatD, murine cathepsin D; hCatD, human cathepsin D.
Degradation Assays—IDE activity was quantified by monitoring the degradation of (7-methoxycoumarin-4-yl)acetic acid-[…](2,4-dinitrophenyl) (FRET1, 5 μM) (49,55), fluoresceinated and biotinylated amyloid β-protein (FAβB; 500 nM) or recombinant human insulin (50 nM) in PBS supplemented with 0.05% BSA. FRET1 degradation was measured by changes in fluorescence (λex=340 nm, λem=420 nm); FAβB degradation was monitored by fluorescence polarization (λex=488 nm, λem=525 nm), as described (56); and insulin degradation was quantified by ELISA. In vitro activity assays incorporated recombinant human IDE (1 nM) purified from bacteria (35). For quantitation of insulin degradation in primary murine skin fibroblasts, cells (1×10^5/well) were plated in 96-well plates and maintained in DMEM supplemented with 10% fetal bovine serum (FBS), 2 mM glutamine, penicillin and streptomycin. […]

[2] = molecular target: T1, IDE; experiment: IDE protease activity assay with FRET1 substrate; type: biochemical; details: Ki converted from IC50 with the Cheng-Prusoff equation
[3] = molecular target: T1, IDE; experiment: IDE protease activity assay, insulin degradation quantified by ELISA; type: biochemical; details: substrate recombinant human insulin; Ki converted from IC50 with the Cheng-Prusoff equation; read-out: Ki Insulin
Description: To assess the extent to which these peptide sequences inhibit IDE, we quantified their potency in protease activity assays using recombinant human IDE and two different substrates: FRET1, a fluorogenic peptide (45), and recombinant human insulin.
Degradation Assays—IDE activity was quantified by monitoring the degradation of (7-methoxycoumarin-4-yl)acetic acid-[…](2,4-dinitrophenyl) (FRET1, 5 μM) (49,55), fluoresceinated and biotinylated amyloid β-protein (FAβB; 500 nM) or recombinant human insulin (50 nM) in PBS supplemented with 0.05% BSA. FRET1 degradation was measured by changes in fluorescence (λex=340 nm, λem=420 nm); FAβB degradation was monitored by fluorescence polarization (λex=488 nm, λem=525 nm), as described (56); and insulin degradation was quantified by ELISA. In vitro activity assays incorporated recombinant human IDE (1 nM) purified from bacteria (35). For quantitation of insulin degradation in primary murine skin fibroblasts, cells (1×10^5/well) were plated in 96-well plates and maintained in DMEM supplemented with 10% fetal bovine serum (FBS), 2 mM glutamine, penicillin and streptomycin. After addition of insulin (10 nM or 100 nM), samples of conditioned medium were removed daily and quickly frozen, then insulin levels were quantified in parallel by ELISA according to manufacturer's recommendations (Crystal Chem, Downers Grove, Ill., USA). Assessment of the activity of P12-3A against a variety of matrix-metalloproteases was conducted using the Matrix Metalloproteinase (MMP) Inhibitor Profiling Kit, Fluorometric RED (Enzo Life Sciences, Inc., Farmingdale, N.Y., USA) according to manufacturer's recommendations using the broad-spectrum MMP inhibitor, NNGH, as a positive control.

[4] = molecular target: T2, recombinant human insulin-degrading …; experiment: IDE activity assay, FRET1 substrate; IC50 converted to Ki (Cheng-Prusoff)
[5] = molecular target: T2, recombinant human insulin-degrading …; experiment: IDE activity assay, insulin substrate (ELISA); IC50 converted to Ki (Cheng-Prusoff)
[6] = molecular target: T2, recombinant human insulin-degrading …; experiment: IDE activity assay, insulin substrate (ELISA)
[7] = molecular target: T2, recombinant human insulin-degrading …; experiment: IDE activity assay, FRET1 degradation
[8] = molecular target: T2, recombinant human insulin-degrading …; experiment: IDE activity assay, FAβB degradation (fluorescence polarization)
[9] = molecular target: T2, recombinant human insulin-degrading …; experiment: FRET1 activity assay after 0 or 4 h pre-incubation of the peptide with IDE

| Molecule | Ki [2] [µM] | Ki [3] [µM] | other results |
| --- | --- | --- | --- |
| COc1ccc(S(=O)(=O)N(CC(=O)NO)CC(C)C)cc1 [NNGH] | – | – | inhibition of MMPs by positive control [1]: significant inhibition |
| CC[C@H](C)[C@@H]1NC(=O)[C@H](CO)NC(=O)[C@H](Cc2c[nH]c3ccccc23)NC(=O)[C@H](Cc2c[nH]c3ccccc23)NC(=O)[C@H](CO)NC(=O)[C@@H](NC(=O)[C@H](C)N)CSSC[C@@H](C(=O)NCC(=O)O)NC(=O)[C@H](CC(C)C)NC(=O)[C@H](Cc2c[nH]cn2)NC1=O [Peptide C7C-1] (H-ACSWWSIHLCG-OH; disulfide 2-10) | 112 ± 6 | 3.7 ± 0.7 | – |
| CC(C)[C@H](N)C(=O)N[C@@H](Cc1c[nH]cn1)C(=O)N[C@@H](Cc1c[nH]c2ccccc12)C(=O)N[C@@H](CC(=O)O)C(=O)N[C@@H](Cc1ccccc1)C(=O)N[C@@H](CCCNC(=N)N)C(=O)N[C@@H](CCC(N)=O)C(=O)N[C@@H](Cc1c[nH]c2ccccc12)C(=O)N[C@@H](Cc1c[nH]c2ccccc12)C(=O)N[C@@H](CCC(N)=O)C(=O)N1CCC[C@H]1C(=O)N[C@@H](CO)C(N)=O [Peptide P12-1A] (H-VHWDFRQWWQPS-NH2) | 5 ± 0.3 | 1.3 ± 0.2 | – |
| CC(C)[C@H](N)C(=O)N[C@@H](Cc1c[nH]cn1)C(=O)N[C@@H](Cc1c[nH]c2ccccc12)C(=O)N[C@@H](CC(=O)O)C(=O)N[C@@H](Cc1ccccc1)C(=O)N[C@@H](CCCNC(=N)N)C(=O)N[C@@H](CCC(N)=O)C(=O)N[C@@H](Cc1c[nH]c2ccccc12)C(N)=O [Peptide P12-1B] (H-VHWDFRQW-NH2) | 41 ± 6.4 | 7 ± 1.7 | – |
| CC(C)[C@H](N)C(=O)N[C@@H](Cc1c[nH]cn1)C(=O)N[C@@H](Cc1c[nH]c2ccccc12)C(=O)N[C@@H](CC(=O)O)C(=O)N[C@@H](Cc1ccccc1)C(=O)N[C@@H](CCCNC(=N)N)C(=O)N[C@@H](CCC(N)=O)C(=O)N[C@@H](Cc1c[nH]c2ccccc12)C(=O)N[C@@H](Cc1c[nH]c2ccccc12)C(=O)N[C@@H](CCC(N)=O)C(=O)N1CCC[C@H]1C(=O)N[C@@H](CO)C(=O)O [Peptide P12-1] (H-VHWDFRQWWQPS-OH) | 7.7 ± 0.7 | 0.8 ± 0.04 | – |
| CC(C)C[C@H](NC(=O)[C@H](CO)NC(=O)[C@@H](N)CCC(N)=O)C(=O)N1CCC[C@H]1C(=O)N[C@@H](Cc1c[nH]c2ccccc12)C(=O)N[C@@H](CS)C(=O)N[C@@H](Cc1ccc(O)cc1)C(=O)N1CCC[C@H]1C(N)=O [Peptide P12-3B] (H-QSLPWCYP-NH2) | 39 ± 20 | – | – |
| CC[C@H](C)[C@H](NC(=O)[C@@H]1CCCN1C(=O)[C@H](CO)NC(=O)[C@@H](N)Cc1c[nH]c2ccccc12)C(=O)N[C@@H](CO)C(=O)NCC(=O)N[C@@H](CCCCN)C(=O)N[C@@H](Cc1ccccc1)C(=O)N[C@@H](Cc1ccccc1)C(=O)N[C@@H](CCC(N)=O)C(=O)N[C@@H](CCCNC(=N)N)C(=O)N[C@@H](Cc1ccccc1)C(N)=O [Peptide P12-4A] (H-WSPISGKFFQRF-NH2) | 4.2 ± 1.3 | 2.6 ± 0.7 | – |
| CC[C@H](C)[C@H](NC(=O)[C@@H]1CCCN1C(=O)[C@H](CO)NC(=O)[C@@H](N)Cc1c[nH]c2ccccc12)C(=O)N[C@@H](CO)C(=O)NCC(=O)N[C@@H](CCCCN)C(=O)N[C@@H](Cc1ccccc1)C(=O)N[C@@H](Cc1ccccc1)C(=O)N[C@@H](CCC(N)=O)C(=O)N[C@@H](CCCNC(=N)N)C(=O)N[C@@H](Cc1ccccc1)C(=O)O [Peptide P12-4] (H-WSPISGKFFQRF-OH) | 3.9 ± 0.5 | 1.5 ± 0.3 | – |
| B1 | – | – | Ki [4]: 8.9 µM; Ki [5]: 3.9 µM |
| B2 | – | – | Ki [6]: > 10 µM; Ki [4]: 139 µM |
| B3 | – | – | Ki [7]: 2.7 µM; Ki [8]: 2.1 µM |
| B4 | – | – | fold increase in potency at the 4-h time point relative to t=0 [9]: 1 fold |
